Measured values reported in the NIST ThermoML archive (doi:10.1021/je200121f).
Where “and” joins values, the source holds several entries; their conditions need not be identical. Equal values may be shown once. Numbers after ± are expanded uncertainties.

Assays:
[1] = for surface tension liquid-gas: Ring tensiometer; for viscosity / speed of sound / mass density: 101 kPa, Liquid; for viscosity: Capillary tube (Ostwald / Ubbelohde) method; for speed of sound: Sing-around technique in a fixed-path interferometer; for mass density: Vibrating tube method
[2] = refractive index (Na D-line) (dimensionless); settings: 101.33 kPa, Liquid, Standard Abbe refractometry
[3] = xn = mol fraction of the nth substance listed; settings: x1 = 1; for surface tension liquid-gas: Ring tensiometer; for viscosity / speed of sound / mass density: 101 kPa, Liquid; for viscosity: Capillary tube (Ostwald / Ubbelohde) method; for speed of sound: Sing-around technique in a fixed-path interferometer; for mass density: Vibrating tube method
[4] = refractive index (Na D-line) (dimensionless); xn = mol fraction of the nth substance listed; settings: 101 kPa, Liquid, Standard Abbe refractometry, x1 = 1

C[C@H](O)CN [(2S)-1-amino-2-propanol]
Settings | mass density, [1] [kg/m3] | refractive index, [2] | speed of sound, [1] [m/s] | surface tension liquid-gas, [1] [mN/m] | viscosity, [1] [mPa·s]
293.15 K | 960.8 ± 0.8 | 1.448 ± 0.0007 | 1560.8 ± 3.4 | 37.6 ± 0.6 | 31.67 ± 0.46
303.15 K | 952.8 ± 0.8 | 1.4442 ± 0.0007 | 1528.3 ± 3.4 | 36.9 ± 0.6 | 17.71 ± 0.29
313.15 K | 944.7 ± 0.8 | 1.4401 ± 0.0007 | 1495.7 ± 3.4 | 36.3 ± 0.6 | 10.65 ± 0.16
323.15 K | 936.5 ± 0.8 | 1.436 ± 0.0007 | 1462.9 ± 3.4 | 35.9 ± 0.6 | 6.961 ± 0.11

CC(O)CNCC(C)O (stereo not given) [N-(2-hydroxypropyl)-2-hydroxy-1-propanamine]
323.15 K
Settings | mass density [kg/m3] | refractive index | speed of sound [m/s] | surface tension liquid-gas [mN/m] | viscosity [mPa·s]
[1] | 984.1 ± 0.9 | – | 1420.3 ± 3.4 | 34.5 ± 0.6 | 125.73 ± 3.3
[2] | – | 1.4512 ± 0.0008 | – | – | –

CN1CCCC1=O [N-methylpyrrolidone]
Settings | mass density, [1] [kg/m3] | refractive index, [2] | speed of sound, [1] [m/s] | surface tension liquid-gas, [1] | viscosity, [1] [mPa·s]
293.15 K | 1033.6 ± 0.5 | 1.4688 ± 0.0005 | 1567.9 ± 2.9 | 42.7 ± 0.6 mN/m | 1.899 ± 0.018
303.15 K | 1024.7 ± 0.5 | 1.4657 ± 0.0006 | 1529.7 ± 2.9 | 41.5 ± 0.6 mN/m and 41.3 ± 0.6 mN/m | 1.592 ± 0.015
313.15 K | 1015.7 ± 0.5 | 1.4621 ± 0.0006 | 1491.2 ± 2.9 | 40.8 ± 0.6 mN/m and 41 ± 0.6 mN/m | 1.353 ± 0.013
323.15 K | 1006.8 ± 0.5 | 1.4579 ± 0.0006 | 1454.6 ± 2.9 | 40 ± 0.6 mN/m and 39.8 ± 0.6 mN/m | 1.17 ± 0.011

CN1CCCC1=O [N-methylpyrrolidone] + CC(O)CNCC(C)O
Settings | mass density, [3] [kg/m3] | refractive index, [4] | speed of sound, [3] [m/s] | surface tension liquid-gas, [3] [mN/m] | viscosity, [3] [mPa·s]
293.15 K | 1033.6 ± 0.5 | 1.4688 ± 0.0005 | 1567.9 ± 2.9 | 42.7 ± 0.6 | 1.899 ± 0.018
303.15 K | 1024.7 ± 0.5 | 1.4657 ± 0.0006 | 1529.7 ± 2.9 | 41.3 ± 0.6 | 1.592 ± 0.015
313.15 K | 1015.7 ± 0.5 | 1.4621 ± 0.0006 | 1491.2 ± 2.9 | 41 ± 0.6 | 1.353 ± 0.013
323.15 K | 1006.8 ± 0.5 | 1.4579 ± 0.0006 | 1454.6 ± 2.9 | 39.8 ± 0.6 | 1.17 ± 0.011

CN1CCCC1=O [N-methylpyrrolidone] + C[C@H](O)CN
Settings | mass density, [3] [kg/m3] | refractive index, [4] | speed of sound, [3] [m/s] | surface tension liquid-gas, [3] [mN/m] | viscosity, [3] [mPa·s]
293.15 K | 1033.6 ± 0.5 | 1.4688 ± 0.0005 | 1567.9 ± 2.9 | 42.7 ± 0.6 | 1.899 ± 0.018
303.15 K | 1024.7 ± 0.5 | 1.4657 ± 0.0006 | 1529.7 ± 2.9 | 41.5 ± 0.6 | 1.592 ± 0.015
313.15 K | 1015.7 ± 0.5 | 1.4621 ± 0.0006 | 1491.2 ± 2.9 | 40.8 ± 0.6 | 1.353 ± 0.013
323.15 K | 1006.8 ± 0.5 | 1.4579 ± 0.0006 | 1454.6 ± 2.9 | 40 ± 0.6 | 1.17 ± 0.011
